# Measured values reported in patent US20250002487A1, “HETEROCYCLIC COMPOUNDS AND USES THEREOF” (Ventus Therapeutics U.S., Inc., priority 2021, published 2025).
# Molecular target: human-cGAS (h-cGAS) (Homo sapiens, UniProt Q8N884)
# Assay: hcGAS Kinase-Glo Assay
# Format: biochemical
# Conditions: 40 nM h-cGAS, 100 μM ATP, 100 μM GTP, 25 nM dsDNA, 3 h incubation, read-out: hcGAS potency IC50
# In short: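 Kinase-Glo luminescent read-out of human cGAS activity, following the published Lama et al. (2019) protocol with slightly altered conditions. Inhibition reported as IC50.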
# Sequence of human-cGAS (h-cGAS) (Q8N884 whole entry): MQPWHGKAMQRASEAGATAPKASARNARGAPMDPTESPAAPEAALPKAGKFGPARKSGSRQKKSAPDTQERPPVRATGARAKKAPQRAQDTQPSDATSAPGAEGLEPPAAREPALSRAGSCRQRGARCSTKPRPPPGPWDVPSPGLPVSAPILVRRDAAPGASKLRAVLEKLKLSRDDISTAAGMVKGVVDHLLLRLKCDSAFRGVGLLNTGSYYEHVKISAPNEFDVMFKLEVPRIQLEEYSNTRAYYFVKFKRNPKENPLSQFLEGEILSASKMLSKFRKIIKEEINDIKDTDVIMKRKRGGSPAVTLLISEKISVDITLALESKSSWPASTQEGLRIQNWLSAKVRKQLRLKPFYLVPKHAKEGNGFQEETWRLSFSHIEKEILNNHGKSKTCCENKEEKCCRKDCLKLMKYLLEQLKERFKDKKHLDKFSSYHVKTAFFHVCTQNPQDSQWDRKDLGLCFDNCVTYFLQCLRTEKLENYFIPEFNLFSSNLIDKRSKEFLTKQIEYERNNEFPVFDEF
row,Structure (SMILES),IC50 [nM]
1,"CC(C)(C)OC(=O)Nc1cc(C(=O)Nc2nnc(-c3ccccc3Cl)s2)on1 [Compound 3, tert-butyl (5-((5-(2-chlorophenyl)-1,3,4-thiadiazol-2-yl)carbamoyl)isoxazol-3-yl)carbamate]",100 to 500
2,"O=C(Nc1nnc(-c2ccccc2Cl)s1)c1cc(C(F)(F)F)no1 [Compound 34, N-(5-(2-chlorophenyl)-1,3,4-thiadiazol-2-yl)-3-(trifluoromethyl)isoxazole-5-carboxamide]",500 to 1000
3,"CSc1nnc(NC(=O)c2cc(C3CCCC3)no2)s1 [Compound 85, 3-cyclopentyl-N-(5-(methylthio)-1,3,4-thiadiazol-2-yl)isoxazole-5-carboxamide]",500 to 1000
4,"Cc1cccc(-c2nnc(NC(=O)c3onc4ccccc34)s2)c1 [Compound 28, N-(5-(m-tolyl)-1,3,4-thiadiazol-2-yl)benzo[c]isoxazole-3-carboxamide]",≥ 1000
5,"CSc1nnc(NC(=O)c2nnc(N3CCCC(O)C3)o2)s1 (stereo not drawn) [Compound 109, 5-(3-hydroxypiperidin-1-yl)-N-(5-(methylthio)-1,3,4-thiadiazol-2-yl)-1,3,4-oxadiazole-2-carboxamide]",≥ 1000
6,"CSc1nnc(NC(=O)c2noc(N3CCCCC3c3ccccc3)n2)s1 (stereo not drawn) [Compound 103, N-(5-(methylthio)-1,3,4-thiadiazol-2-yl)-5-(2-phenylpiperidin-1-yl)-1,2,4-oxadiazole-3-carboxamide]",500 to 1000
7,"Cc1nn(C)cc1-c1cc(C(=O)Nc2nnc(-c3ccccc3Cl)s2)on1 [Compound 54, N-(5-(2-chlorophenyl)-1,3,4-thiadiazol-2-yl)-3-(1,3-dimethyl-1H-pyrazol-4-yl)isoxazole-5-carboxamide]",100 to 500
8,"CSc1nnc(NC(=O)c2cc(-c3cccs3)no2)s1 [Compound 75, N-(5-(methylthio)-1,3,4-thiadiazol-2-yl)-3-(thiophen-2-yl)isoxazole-5-carboxamide]",500 to 1000
9,"O=C(Nc1nnc(-c2ccccc2Cl)s1)c1ccnc(=O)[nH]1 [Compound 62, N-(5-(2-chlorophenyl)-1,3,4-thiadiazol-2-yl)-2-oxo-2,3-dihydropyrimidine-4-carboxamide]",≥ 1000
10,"O=C(Nc1nnc(-c2ccccc2Br)s1)c1onc2ccccc12 [Compound 144, N-[5-(2-bromophenyl)-1,3,4-thiadiazol-2-yl]-2,1-benzoxazole-3-carboxamide]",100 to 500
11,"CSc1nnc(NC(=O)c2cc(-c3cncs3)no2)s1 [Compound 141, N-(5-(methylthio)-1,3,4-thiadiazol-2-yl)-3-(thiazol-5-yl)isoxazole-5-carboxamide]",≥ 1000
12,"CSc1nnc(NC(=O)c2cc3c(C)cc(F)cc3[nH]2)s1 [Compound 78, 6-fluoro-4-methyl-N-(5-(methylthio)-1,3,4-thiadiazol-2-yl)-1H-indole-2-carboxamide]",500 to 1000
13,"COc1ccc(Cc2ccc3noc(C(=O)Nc4nnc(SC)s4)c3c2)cc1 [Compound 160, 5-(4-Methoxybenzyl)-N-(5-(methylthio)-1,3,4-thiadiazol-2-yl)benzo[c]isoxazole-3-carboxamide]",500 to 1000
14,"CSc1nnc(NC(=O)c2nnn(-c3ccccn3)n2)s1 [Compound 136, N-(5-(methylthio)-1,3,4-thiadiazol-2-yl)-2-(pyridin-2-yl)-2H-tetrazole-5-carboxamide]",500 to 1000
15,"O=C(Nc1nnc(-c2cccc(F)c2)s1)c1onc2ccccc12 [Compound 25, N-(5-(3-fluorophenyl)-1,3,4-thiadiazol-2-yl)benzo[c]isoxazole-3-carboxamide]",≥ 1000
16,"CSc1nnc(NC(=O)c2nnc(N3CCC[C@@H]3c3ccccc3)o2)s1 [Compound 125, (R)-N-(5-(methylthio)-1,3,4-thiadiazol-2-yl)-5-(2-phenylpyrrolidin-1-yl)-1,3,4-oxadiazole-2-carboxamide]",100 to 500
17,"CSc1nnc(NC(=O)c2nnn(Cc3ccccn3)n2)s1 [Compound 133, N-[5-(methylthio)-1,3,4-thiadiazol-2-yl]-2-(pyridin-2-ylmethyl)-1,2,3,4-tetrazole-5-carboxamide]",≥ 1000
18,"CSc1nnc(NC(=O)c2cnc(-c3cccs3)s2)s1 [Compound 76, N-(5-(methylthio)-1,3,4-thiadiazol-2-yl)-2-(thiophen-2-yl)thiazole-5-carboxamide]",≥ 1000
19,"O=C(Nc1nnc(-c2ccccc2Cl)s1)c1nnn[nH]1 [Compound 60, N-(5-(2-chlorophenyl)-1,3,4-thiadiazol-2-yl)-1H-tetrazole-5-carboxamide]",≥ 1000
20,"CSc1nnc(NC(=O)c2noc(N3CCCC3c3ccccc3)n2)s1 (stereo not drawn) [Compound 99, N-(5-(methylthio)-1,3,4-thiadiazol-2-yl)-5-(2-phenylpyrrolidin-1-yl)-1,2,4-oxadiazole-3-carboxamide]",≥ 1000
21,"CSc1nnc(NC(=O)c2cc(-c3ccc(F)cc3F)no2)s1 [Compound 48, 3-(2,4-difluorophenyl)-N-(5-(methylthio)-1,3,4-thiadiazol-2-yl)isoxazole-5-carboxamide]",500 to 1000

# Now from value to compound:
row,IC50 [nM],Structure (SMILES)
1,100 to 500,"CSc1nnc(NC(=O)c2cc(-c3cccc4c(C)ccnc34)cc(=O)o2)s1 [Compound 267, 4-(4-methylquinolin-8-yl)-N-(5-(methylthio)-1,3,4-thiadiazol-2-yl)-2-oxo-2H-pyran-6-carboxamide]"
2,100 to 500,"CSc1nnc(NC(=O)c2cc(-c3cccc4cccnc34)cc(=O)o2)s1 [Compound 246, N-(5-methylsulfanyl-1,3,4-thiadiazol-2-yl)-6-oxo-4-(8-quinolyl)pyran-2-carboxamide]"
3,100 to 500,"CSc1nnc(NC(=O)c2cc(-c3cccc(F)c3)cc(=O)o2)s1 [Compound 238, 4-(3-fluorophenyl)-N-(5-methylsulfanyl-1,3,4-thiadiazol-2-yl)-6-oxo-pyran-2-carboxamide]"
4,< 100,"O=C(Nc1nnc(-c2ccccc2Cl)s1)c1cc(Nc2ccccc2)cc(=O)o1 [Compound 206, N-[5-(2-chlorophenyl)-1,3,4-thiadiazol-2-yl]-6-oxo-4-(phenylamino) pyran-2-carboxamide]"
5,≥ 1000,CSc1nnc(NC(=O)c2nnc3ccccn23)s1 [Compound 260]
6,100 to 500,"CSc1nnc(NC(=O)c2cc(-c3cccc4c3ncn4C)cc(=O)o2)s1 [Compound 274, 4-(1-methyl-1H-benzo[d]imidazol-4-yl)-N-(5-(methylthio)-1,3,4-thiadiazol-2-yl)-2-oxo-2H-pyran-6-carboxamide]"
7,500 to 1000,"CSc1nnc(NC(=O)c2cc(-c3ccccc3)no2)s1 [Compound 208, N-[5-(methylsulfanyl)-1,3,4-thiadiazol-2-yl]-3-phenyl-1,2-oxazole-5-carboxamide]"
8,≥ 1000,"CSc1nnc(NC(=O)c2cc(-c3ccccc3)ncn2)s1 [Compound 201, N-(5-(methylthio)-1,3,4-thiadiazol-2-yl)-6-phenylpyrimidine-4-carboxamide]"
9,≥ 1000,"CSc1nnc(NC(=O)c2cc(O)cc(-c3ccccc3)n2)s1 [Compound 200, 4-hydroxy-N-(5-(methylthio)-1,3,4-thiadiazol-2-yl)-6-phenylpicolinamide]"
10,≥ 1000,"COc1ccc(Cc2ccc3noc(C(=O)Nc4nnc(SC)s4)c3c2)cc1O [Compound 187, 5-(3-hydroxy-4-methoxybenzyl)-N-(5-(methylthio)-1,3,4-thiadiazol-2-yl)benzo[c]isoxazole-3-carboxamide]"
11,≥ 1000,"CNc1nnc(NC(=O)c2onc3c2ccc2cccnc23)s1 [Compound 280, N-(5-(methylamino)-1,3,4-thiadiazol-2-yl)isoxazolo[4,3-h]quinoline-3-carboxamide]"
12,100 to 500,"CSc1nnc(NC(=O)c2cc(-c3ccccc3F)no2)s1 [Compound 217, 3-(2-fluorophenyl)-N-(5-(methylthio)-1,3,4-thiadiazol-2-yl)isoxazole-5-carboxamide]"
13,500 to 1000,"CSc1nnc(NC(=O)c2onc3ccc(Cc4ccc(O)c(O)c4)cc23)s1 [Compound 186, 5-(3,4-Dihydroxybenzyl)-N-(5-(methylthio)-1,3,4-thiadiazol-2-yl)benzo[c]isoxazole-3-carboxamide]"
14,500 to 1000,"CSc1nnc(NC(=O)c2onc3ccc(Oc4ccccc4)cc23)s1 [Compound 165, N-(5-(methylthio)-1,3,4-thiadiazol-2-yl)-5-phenoxybenzo[c]isoxazole-3-carboxamide]"
15,500 to 1000,"CSc1nnc(NC(=O)c2cc(-c3cccc(Cl)c3)no2)s1 [Compound 209, 3-(3-chlorophenyl)-N-[5-(methylsulfanyl)-1,3,4-thiadiazol-2-yl]-1,2-oxazole-5-carboxamide]"
16,100 to 500,"O=C(Nc1nnc(-c2ccccc2Cl)s1)c1cc(CCO)no1 [Compound 179, N-(5-(2-chlorophenyl)-1,3,4-thiadiazol-2-yl)-3-(2-hydroxyethyl)isoxazole-5-carboxamide]"
17,500 to 1000,"CSc1nnc(NC(=O)c2onc3c2ccc2ccncc23)s1 [Compound 279, N-(5-(methylthio)-1,3,4-thiadiazol-2-yl)isoxazolo[4,3-h]isoquinoline-3-carboxamide]"
18,≥ 1000,"CSc1nnc(NC(=O)c2onc3c2ccc2cnccc23)s1 [Compound 273, N-(5-(methylthio)-1,3,4-thiadiazol-2-yl)isoxazolo[3,4-f]isoquinoline-3-carboxamide]"
19,≥ 1000,"CSc1nnc(NC(=O)c2onc3c2CCc2scnc2-3)s1 [Compound 171, N-(5-(methylthio)-1,3,4-thiadiazol-2-yl)-4,5-dihydrothiazolo[5′,4′:5,6]benzo[1,2-c]isoxazole-3-carboxamide]"
20,500 to 1000,"CSc1nnc(NC(=O)c2oncc2-c2ccccc2)s1 [Compound 232, N-[5-(methylsulfanyl)-1,3,4-thiadiazol-2-yl]-4-phenyl-1,2-oxazole-5-carboxamide]"
21,500 to 1000,"CSc1nnc(NC(=O)c2onc3ccc(C)cc23)s1 [Compound 227, 5-methyl-N-[5-(methylsulfanyl)-1,3,4-thiadiazol-2-yl]-2,1-benzoxazole-3-carboxamide]"
